Where a name gives a salt, the structure may show the parent alone.
The compounds below were run against 5-HT5A (Homo sapiens, UniProt P47898) (assay: Affinity of selected compounds for 5-HT5A (Ki)).
Format: binding
Method: In both assays, different concentrations of the test substances are used and the Ki and IC50 values are determined.

Sequence of 5-HT5A (P47898 whole entry): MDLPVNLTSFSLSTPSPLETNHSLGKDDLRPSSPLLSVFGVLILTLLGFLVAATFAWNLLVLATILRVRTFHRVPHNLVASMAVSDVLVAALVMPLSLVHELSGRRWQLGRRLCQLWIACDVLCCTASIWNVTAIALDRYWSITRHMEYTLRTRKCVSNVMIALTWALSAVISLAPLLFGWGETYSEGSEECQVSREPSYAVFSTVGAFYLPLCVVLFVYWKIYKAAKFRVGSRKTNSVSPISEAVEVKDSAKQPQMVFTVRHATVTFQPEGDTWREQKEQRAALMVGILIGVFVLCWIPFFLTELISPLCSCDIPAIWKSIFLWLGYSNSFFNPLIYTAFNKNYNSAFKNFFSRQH

`COc1ccc(CN2Cc3ccccc3N=C2N)c(OC)c1` [Example 70, 3-(2,4-Dimethoxybenzyl)-3,4-dihydroquinazolin-2-amine] and `COc1ccc2c(c1)CN(Cc1ccccc1OC)C(N)=N2` [Example 101, 6-Methoxy-3-(2-methoxybenzyl)-3,4-dihydroquinazolin-2-amine] cannot be ordered by Ki: < 10 µM for the first, < 0.3 µM for the second.

`COc1cccc(CN2Cc3ccccc3N=C2N)c1OC` [Example 71, 3-(2,3-Dimethoxybenzyl)-3,4-dihydroquinazolin-2-amine hydrochloride] and `COc1ccccc1CN1Cc2cc(Cl)ccc2N=C1N` [Example 102, 6-Chloro-3-(2-methoxybenzyl)-3,4-dihydroquinazolin-2-amine] cannot be ordered by Ki: < 10 µM for the first, < 0.3 µM for the second.

`NC1=Nc2ccccc2CN1Cc1ccccc1O` [Example 72, 2-[(2-Aminoquinazolin-3(4H)-yl)methyl]phenol] and `COc1ccccc1CN1Cc2ccccc2N=C1NO` [Example 73, 2-(Hydroxyamino)-3-(2-methoxybenzyl)-3,4-dihydroquinazoline] cannot be ordered by Ki: < 10 µM for the first, < 10 µM for the second.

`COc1ccccc1CN1Cc2ccccc2N=C1NC1Cc2ccccc2C1` [Example 74, N-(2,3-Dihydro-1H-inden-2-yl)-3-(2-methoxybenzyl)-3,4-dihydroquinazolin-2-amine acetate] and `COc1ccccc1CN1Cc2ccccc2N=C1NC1CCN(Cc2ccccc2)CC1` [Example 96, N-(1-Benzylpiperidin-4-yl)-3-(2-methoxybenzyl)-3,4-dihydroquinazolin-2-amine fumarate] cannot be ordered by Ki: < 0.3 µM for the first, < 10 µM for the second.

`COc1ccccc1CN1Cc2ccccc2N=C1NCc1cccnc1` [Example 75, 3-(2-Methoxybenzyl)-2-[(pyridin-3-ylmethyl)amino]-3,4-dihydroquinazoline acetate] and `COc1ccccc1CN1Cc2ccccc2N=C1NCc1cccs1` [Example 100, 3-(2-Methoxybenzyl)-N-(2-thienylmethyl)-3,4-dihydroquinazolin-2-amine hydrochloride] cannot be ordered by Ki: < 10 µM for the first, < 10 µM for the second.

`CCCCNC1=Nc2ccccc2CN1Cc1ccccc1OC` [Example 76, 2-(Butylamino)-3-(2-methoxybenzyl)-3,4-dihydroquinazoline hydrochloride] and `COc1ccccc1CN1Cc2ccccc2N=C1NCC(C)C` [Example 77, 2-(Isobutylamino)-3-(2-methoxybenzyl)-3,4-dihydroquinazoline acetate] cannot be ordered by Ki: < 10 µM for the first, < 10 µM for the second.

`COc1ccccc1CN1Cc2ccccc2N=C1N1CCNCC1` [Example 78, 3-(2-Methoxybenzyl)-2-piperazin-1-yl-3,4-dihydroquinazoline hydrochloride] and `COc1ccccc1CN1Cc2ccccc2N=C1N1CCN(C)CC1` [Example 79, 3-(2-Methoxybenzyl)-2-(4-methylpiperazin-1-yl)-3,4-dihydroquinazoline fumarate] cannot be ordered by Ki: < 10 µM for the first, < 10 µM for the second.

`COc1ccccc1CN1Cc2ccccc2N=C1N1CCN(Cc2ccccc2)CC1` [Example 80, 2-(4-Benzylpiperazin-1-yl)-3-(2-methoxybenzyl)-3,4-dihydroquinazoline fumarate] and `COc1ccccc1CN1Cc2ccccc2N=C1NCCc1ccccc1` [Example 97, [3-(2-Methoxybenzyl)-3,4-dihydroquinazolin-2-yl]phenethylamine hydrochloride] cannot be ordered by Ki: < 10 µM for the first, < 10 µM for the second.

`COc1cccc(OC)c1CN1Cc2ccc(Br)cc2N=C1N` [Example 81, 7-Bromo-3-(2,6-dimethoxybenzyl)-3,4-dihydroquinazolin-2-amine] and `COc1cccc(OC)c1CN1Cc2ccc(C)cc2N=C1N` [Example 84, 3-(2,6-Dimethoxybenzyl)-7-methyl-3,4-dihydroquinazolin-2-aminium acetate] cannot be ordered by Ki: < 0.3 µM for the first, < 0.3 µM for the second.

`COc1cccc(OC)c1CN1Cc2ccc(-c3ccccc3)cc2N=C1N` [Example 82, 3-(2,6-Dimethoxybenzyl)-7-phenyl-3,4-dihyroquinazoli-2-aminium acetate] and `COc1cccc(OC)c1CN1Cc2ccc(-c3cccnc3)cc2N=C1N` [Example 85, 3-(2,6-Dimethoxybenzyl)-7-pyridin-3-yl-3,4-dihydroquinazolin-2-aminium acetate] cannot be ordered by Ki: < 0.3 µM for the first, < 0.3 µM for the second.

`COc1ccc(-c2ccc3c(c2)N=C(N)N(Cc2c(OC)cccc2OC)C3)cc1` [Example 83, 3-(2,6-Dimethoxybenzyl)-7-(4-methoxyphenyl)-3,4-dihydroquinazolin-2-aminium acetate] and `COc1cccc(OC)c1CN1Cc2ccc(-c3ccc(OC(F)(F)F)cc3)cc2N=C1N` [Example 87, 3-(2,6-Dimethoxybenzyl)-7-[4-trifluoromethoxy)phenyl]-3,4-dihydroquinazoline-2-aminium acetate] cannot be ordered by Ki: < 10 µM for the first, < 0.3 µM for the second.

`COc1cccc(OC)c1CN1Cc2ccc(-c3cccs3)cc2N=C1N` [Example 86, 3-(2,6-Dimethoxybenzyl)-7-(2-thienyl)-3,4-dihydroquinazolin-2-aminium acetate] and `COc1cccc(OC)c1CN1Cc2ccc(Cl)cc2N=C1N` [Example 90, 7-Chloro-3-(2,6-dimethoxybenzyl)-3,4-dihydroquinazolin-2-amine] cannot be ordered by Ki: < 0.3 µM for the first, < 0.3 µM for the second.

`COc1cccc(OC)c1CN1Cc2ccc(Nc3ccccc3)cc2N=C1N` [Example 88, 7-Anilino-3-(2,6-dimethoxybenzyl)-3,4-dihydroquinazolin-2-aminium acetate] and `COc1cccc(OC)c1CN1Cc2ccccc2N=C1NCc1ccccc1` [Example 95, N-Benzyl-3-(2,6-dimethoxybenzyl)-3,4-dihydroquinazolin-2-amine hydrochloride] cannot be ordered by Ki: < 0.3 µM for the first, < 10 µM for the second.

`COc1cccc(OC)c1CN1Cc2cc(Cl)ccc2N=C1N` [Example 89, 6-Chloro-3-(2,6-dimethoxybenzyl)-3,4-dihydroquinazolin-2-amine] and `COc1cccc(OC)c1CN1Cc2ccccc2N=C1NCc1ccccn1` [Example 94, [3-(2,6-Dimethoxybenzyl)-3,4-dihydroquinazolin-2-yl]pyridin-2-ylmethylamine hydrochloride] cannot be ordered by Ki: < 0.3 µM for the first, < 10 µM for the second.

`COc1ccccc1CN1Cc2ccc([N+](=O)[O-])cc2N=C1N` [Example 91, 3-(2-Methoxybenzyl)-7-nitro-3,4-dihydroquinazolin-2-amine] and `COc1ccccc1CN1Cc2ccccc2N=C1NCc1cccc2ccccc12` [Example 98, 3-(2-Methoxybenzyl)-N-(1-naphthylmethyl)-3,4-dihydroquinazolin-2-amine hydrochloride] cannot be ordered by Ki: < 0.3 µM for the first, < 10 µM for the second.

`COc1cccc(OC)c1CN1Cc2ccccc2N=C1NC1CCCCCC1` [Example 92, N-Cycloheptyl-3-(2,6-dimethoxybenzyl)-3,4-dihydroquinazolin-2-amine hydrochloride] and `COc1cccc(OC)c1CN1Cc2ccccc2N=C1NCc1cccc2ccccc12` [Example 93, 3-(2,6-Dimethoxybenzyl)-N-(1-naphthylmethyl)-3,4-dihydroquinazolin-2-amine hydrochloride] cannot be ordered by Ki: < 0.3 µM for the first, < 10 µM for the second.
